In US20020035131A1, “Regimen and kit for amelioration of premature ejaculation” (Pentech Pharmaceuticals, Inc., priority 1999, published 2002):
Where “and” joins values, the source holds several entries; their conditions need not be identical. Equal entries are not always repeated.

Tests used:
P450 2D6 enzyme = P450 2D6 enzyme (Homo sapiens, UniProt P10635); conditions: cited from earlier work
[1] = test system: healthy men with a diagnosis of premature ejaculation (PE); assay: Example 3: double-blind, randomized, placebo-controlled three-way crossover safety and efficacy study, 20 and 30 mg capsules; format: in vivo, human; conditions: for Mean Time in minutes, Reported By Partner / Time in minutes (Range), Reported By Partner / Mean Time in minutes, Reported By Patient / Time in minutes (Range), Reported By Patient / Mean % Change from Baseline, Reported By Partner / Mean % Change from Baseline, Reported By Patient: 6-week treatment period, preliminary data; for Mean Time in minutes, Reported By Partner / Time in minutes (Range), Reported By Partner / Mean Time in minutes, Reported By Patient / Time in minutes (Range), Reported By Patient: male baseline latency ≦ 2 minutes; for Reason for Early Termination: AE (Adverse Experience), patients: crossover of placebo, 20 and 30 mg capsules, not attributed to one treatment
Experimental: A double-blind, randomized, placebo-controlled, three-way crossover safety and efficacy study was conducted at four clinical sites, A-D. […] The study consisted of a screening period, a baseline period, and three treatment periods, separated by two washout periods. Patients who completed the study participated for about twenty-five weeks. […] Patients who met the selection criteria provided a medical history and submitted to psychosexual and physical examinations at screening. The efficacy of the paroxetine capsules was assessed at each visit by questionnaire. Safety was assessed by physical examinations and adverse experience (AE) reports, if any, were collected throughout the course of the study. A post-treatment physical assessment was performed at the final visit. Qualified patients who were admitted to the study were assigned an identification number in sequential order by enrollment. […] There were about twenty-three patients per sequence. […] Life long history of PE and/or history of PE within the last six months having ≦one minute ejaculation and a perception of lack of control. […] Identically matching placebo capsules were also supplied. Blinding, packaging and labeling was such that each strength of paroxetine capsule and placebo capsule was indistinguishable from one another on the basis of size, appearance, shape, weight, taste, odor finish, and dissolution characteristics. […] A three-week washout (no treatment) period took place between the end of Treatment Period 1 and the start of Treatment Period 2, and between the end of Treatment Period 2 and the start of Treatment Period 3. The following methodology for the study was employed.

[2] = cited from earlier work
dopamine receptors = conditions: unlike sertraline; cited from earlier work
[3] = test system: healthy men with a diagnosis of premature ejaculation (PE); assay: Example 4: double-blind, randomized, parallel safety and efficacy study, 6, 9 and 12 mg capsules; format: in vivo, human; conditions: for Time to Ejaculate, Mean Time (minutes), Reported By Partner / Time to Ejaculate, Range (minutes), Reported By Partner / Time to Ejaculate, Mean Time (minutes), Reported By Patient / Time to Ejaculate, Range (minutes), Reported By Patient: after 6 weeks treatment, baseline latency ≦ 2 minutes, preliminary data; for Time to Ejaculate, Mean Time (minutes), Reported By Partner / Time to Ejaculate, Range (minutes), Reported By Partner: n 23; for Reason for Early Termination: AE (Adverse Experience), patients: 6, 9 and 12 mg capsules combined
Experimental: A double-blind, randomized, parallel safety and efficacy study was conducted at six clinical sites, A-F. […] The study consisted of a screening period, baseline period, and two treatment periods. The patients who completed the study participated for about nine weeks. The patients selected were healthy men between the ages of 21 and 65 years with a diagnosis of premature ejaculation (PE). Patients who met the selection criteria provided a medical history and submitted to psychosexual and physical examinations at screening. The efficacy of the paroxetine capsules was assessed at each visit. Safety was assessed by physical examinations and adverse experience (AE) reports, if any, were collected throughout the study. A post-treatment physical assessment was performed at the final visit. Qualified patients who were admitted to this study were assigned an identification number in sequential order by enrollment. […] There were a total of about eighteen patients per dose/per site. […] The capsule was to be taken one hour after breakfast or within two hours of awakening.

[4] = test system: normally potent male patients suffering from premature ejaculation; assay: Example 1: incidence of adverse effects; format: in vivo, human
Excerpt: All patients in the study group were heterosexual, had no other sexual disorders and were either married or in a stable relationship. The baseline pre-treatment ELT for the group, determined as the mean of measurements from a minimum of two acts of sexual intercourse was 2.2 (range 2-3) as reported by patients prior to commencement of the study using a stop watch operated by the patients.
Each patient was supplied with an ejaculation diary and instructed to record their frequency of coitus, quality of erection and orgasm, and to measure and record their ejaculatory latency time using a stop-watch. The patients were required to attempt coitus on at least two occasions each week.

[5] = test system: normally potent male patients suffering from premature ejaculation; assay: Example 2: incidence of adverse effects; format: in vivo, human
[6] = Group A-Phase 1: 20 mg acute daily dosing
[7] = Group A-Phase 1: 20 mg acute daily dosing, 61 patients
[8] = Study Group 2, Daily Paroxetine (10 mg)
[9] = Study Group 2, Daily Paroxetine (10 mg), 42 patients
[10] = Study Group 2, Daily Paroxetine (10 mg), 42 patients, listed as Paroxetine

P450 2D6 enzyme, sequence (P10635 whole entry): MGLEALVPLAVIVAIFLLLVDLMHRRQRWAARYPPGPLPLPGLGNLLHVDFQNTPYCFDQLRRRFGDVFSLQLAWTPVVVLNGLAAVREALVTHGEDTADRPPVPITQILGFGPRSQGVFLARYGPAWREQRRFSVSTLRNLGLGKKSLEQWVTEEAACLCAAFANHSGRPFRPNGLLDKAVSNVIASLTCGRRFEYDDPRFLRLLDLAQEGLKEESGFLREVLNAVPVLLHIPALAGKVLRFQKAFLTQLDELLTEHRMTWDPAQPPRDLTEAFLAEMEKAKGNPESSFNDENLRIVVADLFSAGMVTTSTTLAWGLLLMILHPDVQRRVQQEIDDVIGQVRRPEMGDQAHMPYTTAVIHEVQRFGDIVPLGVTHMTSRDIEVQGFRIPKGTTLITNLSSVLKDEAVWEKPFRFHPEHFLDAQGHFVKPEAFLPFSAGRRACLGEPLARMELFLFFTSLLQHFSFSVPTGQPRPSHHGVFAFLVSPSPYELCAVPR

SMILES: Fc1ccc([C@@H]2CCNC[C@H]2COc2ccc3c(c2)OCO3)cc1 (relative stereo) [paroxetine, trans-(−)-3-(1,3-benzodioxol-5-yloxy)methyl-4-(4-fluorophenyl) piperidine]
- inhibition of the P450 2D6 enzyme (P450 2D6 enzyme): potent inhibitor
- Mean Time in minutes, Reported By Partner ([1]; 20 mg capsule daily, n = 26): 6.5 min
- Time in minutes (Range), Reported By Partner ([1]; 20 mg capsule daily, n = 26): (0.4-20) minutes
- Mean Time in minutes, Reported By Patient ([1]; 20 mg capsule daily, n = 28): 6.2 min
- Time in minutes (Range), Reported By Patient ([1]; 20 mg capsule daily, n = 28): (0.5-20) minutes
- Mean % Change from Baseline, Reported By Partner ([1]; 20 mg capsule daily): 225%
- Mean % Change from Baseline, Reported By Patient ([1]; 20 mg capsule daily): 464%
- Mean Time in minutes, Reported By Partner ([1]; 30 mg capsule daily, n = 25): 6.8 min
- Time in minutes (Range), Reported By Partner ([1]; 30 mg capsule daily, n = 25): (0.3-30) minutes
- Mean Time in minutes, Reported By Patient ([1]; 30 mg capsule daily, n = 27): 7 min
- Time in minutes (Range), Reported By Patient ([1]; 30 mg capsule daily, n = 27): (0.25-45) minutes
- Mean % Change from Baseline, Reported By Partner ([1]; 30 mg capsule daily): 240%
- Mean % Change from Baseline, Reported By Patient ([1]; 30 mg capsule daily): 536%
- Reason for Early Termination: AE (Adverse Experience), patients ([1]; Clinical Site A, 10 enrolled): 0
- Reason for Early Termination: AE (Adverse Experience), patients ([1]; Clinical Site B, 9 enrolled): 0
- Reason for Early Termination: AE (Adverse Experience), patients ([1]; Clinical Site C, 15 enrolled): 2
- Reason for Early Termination: AE (Adverse Experience), patients ([1]; Clinical Site D, 19 enrolled): 3
- Reason for Early Termination: AE (Adverse Experience), patients ([1]; TOTALS of sites A-D, 53 enrolled): 5
- time to steady state systemic levels ([2]; occurring after about): 7 to 14 days
- half life ([2]; reportedly): 24 h
- time to peak plasma levels ([2]; usually achieved within about): 2 to 8 h
- affinity for dopamine receptors (dopamine receptors): little affinity
- Time to Ejaculate, Mean Time (minutes), Reported By Partner ([3]; 6 mg capsule daily): 2.6 min
- Time to Ejaculate, Range (minutes), Reported By Partner ([3]; 6 mg capsule daily): 0.4 to 15 min
- Time to Ejaculate, Mean Time (minutes), Reported By Patient ([3]; 6 mg capsule daily, n 25): 2.4 min
- Time to Ejaculate, Range (minutes), Reported By Patient ([3]; 6 mg capsule daily, n 25): 0.03 to 16 min
- Time to Ejaculate, Mean Time (minutes), Reported By Partner ([3]; 9 mg capsule daily): 2.3 min
- Time to Ejaculate, Range (minutes), Reported By Partner ([3]; 9 mg capsule daily): 0.03 to 10 min
- Time to Ejaculate, Mean Time (minutes), Reported By Patient ([3]; 9 mg capsule daily, n 25): 2.4 min
- Time to Ejaculate, Range (minutes), Reported By Patient ([3]; 9 mg capsule daily, n 25): 0.03 to 12.5 min
- Time to Ejaculate, Mean Time (minutes), Reported By Partner ([3]; 12 mg capsule daily): 3.5 min
- Time to Ejaculate, Range (minutes), Reported By Partner ([3]; 12 mg capsule daily): 0.12 to 30 min
- Time to Ejaculate, Mean Time (minutes), Reported By Patient ([3]; 12 mg capsule daily, n 24): 2.4 min
- Time to Ejaculate, Range (minutes), Reported By Patient ([3]; 12 mg capsule daily, n 24): 0.25 to 10 min
- Reason for Early Termination: AE (Adverse Experience), patients ([3]; Clinical Site A, 10 enrolled): 0
- Reason for Early Termination: AE (Adverse Experience), patients ([3]; Clinical Site B, 16 enrolled): 3
- Reason for Early Termination: AE (Adverse Experience), patients ([3]; Clinical Site C, 34 enrolled): 1
- Reason for Early Termination: AE (Adverse Experience), patients ([3]; Clinical Site D, 6 enrolled): 1
- Reason for Early Termination: AE (Adverse Experience), patients ([3]; Clinical Site E, 22 enrolled): 1
- Reason for Early Termination: AE (Adverse Experience), patients ([3]; Clinical Site F, 19 enrolled): 2
- Reason for Early Termination: AE (Adverse Experience), patients ([3]; TOTALS of sites A-F, 107 enrolled): 8
- Adverse effects: Total Patients (fraction) [4, 6]: 12/61
- Adverse effects: Total Patients (percent) [4, 6]: 20%
- Adverse Effect: Drowsiness (patients) [4, 7]: 1
- Adverse Effect: Inhibited orgasm (patients) [4, 7]: 3
- Adverse effect: Anejaculation (patients) [4, 7]: 5
- Adverse effect: Anorexia (patients) [4, 7]: 1
- Adverse effect: Gastrointestinal upset (patients) [4, 7]: 2
- Adverse effect: Reduced Libido (patients) [4, 7]: 3
- patients with inhibition of orgasm despite achieving ejaculation (percent) ([4]; Group A-Phase 1: acute treatment with 20 mg paroxetine/day, 3/61): 5%
- patients with anejaculation (percent) ([4]; Group A-Phase 1: acute treatment with 20 mg paroxetine/day, 5/61): 8%
- Adverse effects: Total Patients (fraction) ([4]; Group A-Phase 2: 20 mg continual maintenance after conversion): None and 0/53
- Adverse effects: Total Patients (fraction) ([4]; Group B: 20 mg continual maintenance only): None and 0/33
- Erectile dysfunction ([4]; all patients of Example 1): not reported by any of the patients
- patients with anejaculation achieving ejaculation with a reduced dose ([4]; anejaculation on 20 mg/day, reduced dose of 5 mg (n=3) and 10 mg (n=1)): 4/5
- patients reporting any adverse effects ([5]; Study Group 1, continual maintenance use of paroxetine (20 mg)): None
- Adverse effects: Total Patients (fraction) [5, 8]: 7/42
- Adverse effects: Total Patients (percent) [5, 8]: 17%
- Adverse effect: Anejaculation (patients) [5, 9]: Three
- Adverse effect: Anorexia (patients) [5, 9]: 1
- Adverse effect: Gastrointestinal upset (patients) [5, 9]: 3
- Adverse effect: Reduced Libido (patients) [5, 9]: Two
- Adverse effect: Anejaculation (patients) [5, 10]: 3
- Adverse effect: Reduced Libido (patients) [5, 10]: 2
- return of ejaculation after withdrawal of the drug ([5]; Study Group 2, patients with anejaculation on daily paroxetine): 2 to 10 days
